Experimental data: US9409922B2, “Imidazopyridine macrocycles as inhibitors of human immunodeficiency virus replication” (priority 2014, dated 2016)
pEC50: −log10 of the molar value.

test system: NL-RLuc virus; test: Inhibition of HIV replication: NL-RLuc reporter virus in MT-2 cells, luciferase readout; format: cell-based; conditions: Human immunodeficiency virus 1, MT2, 120 h, MT-2 cells infected with NL-RLuc virus, 5 days of incubation, 10% FBS, at least 2 experiments
Text: Inhibition of HIV Replication:
A recombinant NL-RLuc proviral clone was constructed in which a section of the nef gene from NL4-3 was replaced with the Renilla Luciferase gene. This virus is fully infectious and can undergo multiple cycles of replication in cell culture. In addition, the luciferous reporter provides a simple and easy method for quantitating the extent of virus growth and consequently, the antiviral activity of test compounds. The plasmid pNLRLuc contains the proviral NL-Rluc DNA cloned into pUC 18 at the PvuII site. The NL-RLuc virus was prepared by transfection of 293T cells with the plasmid pNLRLuc. Transfections were performed using the LipofectAMINE PLUS kit from Invitrogen (Carlsbad, Calif.) according to the manufacturer and the virus generated was titered in MT-2 cells. For susceptibility analyses, the titrated virus was used to infect MT-2 cells in the presence of compound, and after 5 days of incubation, cells were processed and quantitated for virus growth by the amount of expressed luciferase. Assay media was RPMI 1640 supplemented with 10% heat inactivated fetal bovine serum (FBS), 100 units/ml penicillin G/100 units/ml streptomycin, 10 mM HEPES buffer pH 7.55 and 2 mM L-glutamine. The results from at least 2 experiments were used to calculate the EC50 values. Luciferase was quantitated using the Dual Luciferase kit from Promega (Madison, Wis.). Susceptibility of viruses to compounds was determined by incubation in the presence of serial dilutions of the compound. The 50% effective concentration (EC50) was calculated by using the exponential form of the median effect equation where (Fa)=1/[1+(ED50/drug conc.)^m](Johnson V A, Byington R T. Infectivity Assay. In Techniques in HIV Research. ed. Aldovini A, Walker B D. 71-76. New York: Stockton Press. 1990).

Compound | pEC50
Cc1cc(F)c2c(c1)O[C@@H](C)CCCCOC1(C)CCN(CC1)c1c([C@H](OC(C)(C)C)C(=O)O)c(C)cc3nc(cn13)-c1cccc-2c1 [Example 21, (2S)-2-(tert-Butoxy)-2-[(22S)-16-fluoro-4,18,22,28-tetramethyl-21,27-dioxa-1,7,34-triazahexacyclo[26.2.2.1^6,^9.1^10,^14.0^2,^7.0^15,^20]tetratriaconta-2,4,6(34),8,10(33),11,13,15(20),16,18-decaen-3-yl]acetic acid] | 8.30
Cc1ccc2c(c1)-c1cccc(c1)-c1nc3cc(C)c([C@H](OC(C)(C)C)C(=O)O)c(n3c1Cl)N1CCC(C)(CC1)OCCCC[C@H](C)O2 [Example 22, (2S)-2-(tert-Butoxy)-2-[(22S)-8-chloro-4,17,22,28-tetramethyl-21,27-dioxa-1,7,34-triazahexacyclo[26.2.2.1^6,^9.1^10,^14.0^2,^7.0^15,^20]tetratriaconta-2,4,6(34),8,10(33),11,13,15(20),16,18-decaen-3-yl]acetic acid] | 7.62
Cc1cc2nc3c(Cl)n2c(c1[C@H](OC(C)(C)C)C(=O)O)N1CCC(C)(CC1)OCCCC[C@H](C)Oc1cc(F)c(F)cc1-c1cccc-3c1 [Example 23, (2S)-2-(tert-Butoxy)-2-[(22S)-8-chloro-17,18-difluoro-4,22,28-trimethyl-21,27-dioxa-1,7,34-triazahexacyclo[26.2.2.1^6,^9.1^10,^14.0^2,^7.0^15,^20]tetratriaconta-2,4,6(34),8,10(33),11,13,15(20),16,18-decaen-3-yl]acetic acid] | 7.72
Cc1cc2c(cc1F)-c1cccc(c1)-c1nc3cc(C)c([C@H](OC(C)(C)C)C(=O)O)c(n3c1Cl)N1CCC(C)(CC1)OCCCC[C@H](C)O2 [Example 24, (2S)-2-(tert-Butoxy)-2-[(22S)-8-chloro-17-fluoro-4,18,22,28-tetramethyl-21,27-dioxa-1,7,34-triazahexacyclo[26.2.2.1^6,^9.1^10,^14.0^2,^7.0^15,^20]tetratriaconta-2,4,6(34),8,10(33),11,13,15(20),16,18-decaen-3-yl]acetic acid] | 7.70
Cc1cc2c(cc1C)-c1cccc(c1)-c1nc3cc(C)c([C@H](OC(C)(C)C)C(=O)O)c(n3c1Cl)N1CCC(C)(CC1)OCCCC[C@H](C)O2 [Example 25, (2S)-2-(tert-Butoxy)-2-[(22S)-8-chloro-4,17,18,22,28-pentamethyl-21,27-dioxa-1,7,34-triazahexacyclo[26.2.2.1^6,^9.1^10,^14.0^2,^7.0^15,^20]tetratriaconta-2,4,6(34),8,10(33),11,13,15(20),16,18-decaen-3-yl]acetic acid] | 7.52
Cc1cc2nc3c(F)n2c(c1[C@H](OC(C)(C)C)C(=O)O)N1CCC(C)(CC1)OCCCC[C@H](C)Oc1cc(F)c(F)cc1-c1cccc-3c1 [Example 26, (2S)-2-(tert-Butoxy)-2-[(22S)-8,17,18-trifluoro-4,22,28-trimethyl-21,27-dioxa-1,7,34-triazahexacyclo[26.2.2.1^6,^9.1^10,^14.0^2,^7.0^15,^20]tetratriaconta-2,4,6(34),8,10(33),11,13,15(20),16,18-decaen-3-yl]acetic acid] | 7.59
Cc1cc2c(cc1F)-c1cccc(c1)-c1nc3cc(C)c([C@H](OC(C)(C)C)C(=O)O)c(n3c1Br)N1CCC(C)(CC1)OCCCC[C@H](C)O2 [Example 27, (2S)-2-[(22S)-8-Bromo-17-fluoro-4,18,22,28-tetramethyl-21,27-dioxa-1,7,34-triazahexacyclo[26.2.2.1^6,^9.1^10,^14.0^2,^7.0^15,^20]tetratriaconta-2,4,6(34),8,10(33),11,13,15(20),16,18-decaen-3-yl]-2-(tert-butoxy)acetic acid] | 7.89
Cc1cc2c(cc1F)-c1cccc(c1)-c1nc3c(Br)c(C)c([C@H](OC(C)(C)C)C(=O)O)c(n3c1Cl)N1CCC(C)(CC1)OCCCC[C@H](C)O2 [Example 29, (2S)-2-[(22S)-5-Bromo-8-chloro-17-fluoro-4,18,22,28-tetramethyl-21,27-dioxa-1,7,34-triazahexacyclo[26.2.2.1^6,^9.1^10,^14.0^2,^7.0^15,^20]tetratriaconta-2,4,6(34),8,10(33),11,13,15(20),16,18-decaen-3-yl]-2-(tert-butoxy)acetic acid] | 7.52
Cc1cc2c(cc1F)-c1cccc(c1)-c1cn3c(c([C@H](OC(C)(C)C)C(=O)O)c(C)c(C)c3n1)N1CCC(C)(CC1)OCCCC[C@H](C)O2 [Example 30, (2S)-2-(tert-Butoxy)-2-[(22S)-17-fluoro-4,5,18,22,28-pentamethyl-21,27-dioxa-1,7,34-triazahexacyclo[26.2.2.1^6,^9.1^10,^14.0^2,^7.0^15,^20]tetratriaconta-2,4,6(34),8,10(33),11,13,15(20),16,18-decaen-3-yl]acetic acid] | 7.68
Cc1cc2c(cc1F)-c1cccc(c1)-c1cn3c(c([C@H](OC(C)(C)C)C(=O)O)c(C)c(NS(C)(=O)=O)c3n1)N1CCC(C)(CC1)OCCCC[C@H](C)O2 [Example 31, (2S)-2-(tert-Butoxy)-2-[(22S)-17-fluoro-5-methanesulfonamido-4,18,22,28-tetramethyl-21,27-dioxa-1,7,34-triazahexacyclo[26.2.2.1^6,^9.1^10,^14.0^2,^7.0^15,^20]tetratriaconta-2,4,6(34),8,10(33),11,13,15(20),16,18-decaen-3-yl]acetic acid] | 7.72
Cc1c([C@H](OC(C)(C)C)C(=O)O)c2n3cc(nc3c1Br)-c1cccc(c1)-c1cc(F)ccc1O[C@@H](C)CCCCOC1(C)CCN2CC1 [Example 32, (2S)-2-[(22S)-5-Bromo-17-fluoro-4,22,28-trimethyl-21,27-dioxa-1,7,34-triazahexacyclo[26.2.2.1^6,^9.1^10,^14.0^2,^7.0^15,^20]tetratriaconta-2,4,6(34),8,10(33),11,13,15(20),16,18-decaen-3-yl]-2-(tert-butoxy)acetic acid] | 8.00
Cc1c([C@H](OC(C)(C)C)C(=O)O)c2n3cc(nc3c1C)-c1cccc(c1)-c1cc(F)ccc1O[C@@H](C)CCCCOC1(C)CCN2CC1 [Example 33, (2S)-2-(tert-Butoxy)-2-[(22S)-17-fluoro-4,5,22,28-tetramethyl-21,27-dioxa-1,7,34-triazahexacyclo[26.2.2.1^6,^9.1^10,^14.0^2,^7.0^15,^20]tetratriaconta-2,4,6(34),8,10(33),11,13,15(20),16,18-decaen-3-yl]acetic acid] | 7.60
Cc1cc2nc3cn2c(c1[C@H](OC(C)(C)C)C(=O)O)N1CCC(C)(CC1)OC/C=C/C[C@H](C)Oc1c(F)cccc1-c1cccc-3c1 [Example 34, (2S)-2-(tert-Butoxy)-2-[(22S,24E)-19-fluoro-4,22,28-trimethyl-21,27-dioxa-1,7,34-triazahexacyclo[26.2.2.1^6,^9.1^10,^14.0^2,^7.0^15,^20]tetratriaconta-2,4,6(34),8,10(33),11,13,15(20),16,18,24-undecaen-3-yl]acetic acid] | 8.52
Cc1cc2nc3cn2c(c1[C@H](OC(C)(C)C)C(=O)O)N1CCC(C)(CC1)OCCCC[C@H](C)Oc1c(F)cccc1-c1cccc-3c1 [Example 35, (2S)-2-(tert-Butoxy)-2-[(22S)-19-fluoro-4,22,28-trimethyl-21,27-dioxa-1,7,34-triazahexacyclo[26.2.2.1^6,^9.1^10,^14.0^2,^7.0^15,^20]tetratriaconta-2,4,6(34),8,10(33),11,13,15(20),16,18-decaen-3-yl]acetic acid] | 8.15
Cc1c([C@H](OC(C)(C)C)C(=O)O)c2n3cc(nc3c1Br)-c1cccc(c1)-c1cccc(F)c1O[C@@H](C)CCCCOC1(C)CCN2CC1 [Example 36, (2S)-2-[(22S)-5-Bromo-19-fluoro-4,22,28-trimethyl-21,27-dioxa-1,7,34-triazahexacyclo[26.2.2.1^6,^9.1^10,^14.0^2,^7.0^15,^20]tetratriaconta-2,4,6(34),8,10(33),11,13,15(20),16,18-decaen-3-yl]-2-(tert-butoxy)acetic acid] | 8.00
Cc1c([C@H](OC(C)(C)C)C(=O)O)c2n3cc(nc3c1C)-c1cccc(c1)-c1cccc(F)c1O[C@@H](C)CCCCOC1(C)CCN2CC1 [Example 37, (2S)-2-(tert-Butoxy)-2-[(22S)-19-fluoro-4,5,22,28-tetramethyl-21,27-dioxa-1,7,34-triazahexacyclo[26.2.2.1^6,^9.1^10,^14.0^2,^7.0^15,^20]tetratriaconta-2,4,6(34),8,10(33),11,13,15(20),16,18-decaen-3-yl]acetic acid] | 8.00

same assay, conditions: MT-2 cells infected with NL-RLuc virus, 5 days of incubation, 10% FBS, at least 2 experiments

Compound | pEC50
Cc1cc2c(cc1F)-c1cccc(c1)-c1nc3cc(C)c([C@H](OC(C)(C)C)C(=O)O)c(n3c1Br)N1CCC(C)(CC1)OCCCC[C@H](C)O2 [Example 28, (2S)-2-[(22S)-8-Bromo-17-fluoro-4,18,22,28-tetramethyl-21,27-dioxa-1,7,34-triazahexacyclo[26.2.2.1^6,^9.1^10,^14.0^2,^7.0^15,^20]tetratriaconta-2,4,6(34),8,10(33),11,13,15(20),16,18-decaen-3-yl]-2-(tert-butoxy)acetic acid] | 8.10
